Measured values: patent US8809341B2, “2,4-pyrimidinediamine compounds and uses as anti-proliferative agents” (Rigel Pharmaceuticals, Inc., priority 2003, dated 2014)
Blank lines part the entries; values can stand above or below the compound they belong to.

Tests used:
[1] = system: H1299 cells; experiment: in vitro antiproliferation assay, H1299 (lung); format: cell-based
Outline: (§1)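 Standard in vitro antiproliferation assays on tumour cell lines, including A549 and H1299 (both lung); IC50 values determined.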

[2] = system: A549 cells; experiment: in vitro antiproliferation assay, A549 (lung); format: cell-based
Outline: as §1

[3] = H1299 (lung) cells, in vitro antiproliferation
[4] = A549 (lung) cells, in vitro antiproliferation
[5] = IC50 class against H1299 (lung) tumor cells
[6] = IC50 class against A549 (lung) tumor cells
[7] = in vitro antiproliferation, H1299 (lung) cells, Table 4, compounds with no designated stereochemistry tested as racemate
[8] = in vitro antiproliferation, A549 (lung) cells, Table 4, compounds with no designated stereochemistry tested as racemate
[9] = Homo sapiens, NCI-H1299, IC50 class against H1299 (lung) tumor cells
[10] = Homo sapiens, IC50 class against A549 (lung) tumor cells
[11] = Table 5, in vitro antiproliferation, H1299 (lung) cells
[12] = Table 5, in vitro antiproliferation, A549 (lung) cells

- IC50 [1, 3]: ≤ 20 µM
- IC50 [2, 4]: ≤ 20 µM
SMILES: CNC(=O)COc1cccc(Nc2nc(Nc3ccc(OCCN(C)C)cc3)ncc2F)c1 [compound 694]

- IC50 [1, 3]: ≤ 20 µM
- IC50 [2, 4]: ≤ 20 µM
SMILES: CNC(=O)COc1cc(Nc2ncc(F)c(Nc3ccc(C)c(OCC(=O)NC)c3)n2)ccc1C [compound 759]

- IC50 ([1]; H1299 (lung) cells, antiproliferation): ≤ 20 µM
- IC50 ([2]; A549 (lung) cells, antiproliferation): ≤ 20 µM
SMILES: CNC(=O)c1ccc(Nc2ncc(F)c(N(C)c3cc(C)c(Cl)c(C)c3)n2)cc1Cl [compound 921]

- IC50 ([1]; H1299 (lung) cells): ≤ 20 µM
- IC50 ([2]; A549 (lung) cells): ≤ 20 µM
SMILES: COc1ccc(Nc2nc(Nc3ccc4c(cnn4CC4CCCCC4)c3)ncc2F)cc1Cl [compound 1090]

- IC50 [1, 5]: ≤ 20 µM
- IC50 [2, 6]: ≤ 20 µM
SMILES: COc1ccc(Nc2ncc(F)c(Nc3ccc4c(c3)OCCO4)n2)c(C)c1 [compound 1046]

- IC50 [1, 3]: > 20 µM
- IC50 [2, 4]: > 20 µM
SMILES: Cc1cc(C)cc(Nc2ncc(F)c(Nc3cccc(OC(F)(F)F)c3)n2)c1 [compound 813]

- IC50 [1, 3]: > 20 µM
- IC50 [2, 4]: > 20 µM
SMILES: COc1ccc(Nc2nc(Nc3cc(Cl)c(OC)c(Cl)c3)ncc2F)cc1Cl [compound 831]

- IC50 [1, 3]: ≤ 20 µM
- IC50 [2, 4]: ≤ 20 µM
SMILES: C=CCNC(=O)COc1cccc(Nc2nc(Nc3cccc(OCC(=O)NC)c3)ncc2F)c1 [compound 791]

- IC50 [1, 5]: ≤ 20 µM
- IC50 [2, 6]: ≤ 20 µM
SMILES: COc1cc(Nc2ncc(F)c(Nc3ccc4c(n3)NCCO4)n2)cc(OC)c1OC [compound 611]

- IC50 [1, 5]: > 20 µM
- IC50 [2, 6]: > 20 µM
SMILES: CNc1ncc(F)c(Nc2ccc3c(c2)OCCO3)n1 [compound 1044]

- IC50 [1, 5]: ≤ 20 µM
- IC50 [2, 6]: ≤ 20 µM
SMILES: CC(=O)N1CCN(c2ccc(Nc3ncc(F)c(Nc4ccc5c(n4)NCCO5)n3)cc2)CC1 [compound 603]

- IC50 ([1]; H1299 (lung) cells): ≤ 20 µM
- IC50 ([2]; A549 (lung) cells): ≤ 20 µM
SMILES: CCCCn1ncc2ccc(Nc3ncc(F)c(Nc4ccc(F)c(OC)c4)n3)cc21 [compound 1089]

- IC50 [1, 3]: ≤ 20 µM
- IC50 [2, 4]: ≤ 20 µM
SMILES: COc1cc(Nc2nc(Nc3cc(OC)cc(C(F)(F)F)c3)ncc2F)cc(OC)c1 [compound 849]

- IC50 [1, 9]: > 20 µM
- IC50 [2, 10]: > 20 µM
SMILES: CC(=O)N1CCN(c2cccc(Nc3ncc(F)c(Nc4cccc(Nc5ncc[nH]5)c4)n3)c2)CC1 [compound 1059]

- IC50 ([1]; H1299 (lung) cells): > 20 µM
- IC50 ([2]; A549 (lung) cells): > 20 µM
SMILES: Fc1cnc(Nc2ccc3c(cnn3CC3CCCCC3)c2)nc1Nc1ccc(Cl)c(Cl)c1 [compound 1091]

- IC50 [1, 3]: ≤ 20 µM
- IC50 [2, 4]: ≤ 20 µM
SMILES: CCOc1ccc(Nc2nc(Nc3cccc(OCC(=O)NC)c3)ncc2F)cc1 [compound 772]

- IC50 [1, 3]: ≤ 20 µM
- IC50 [2, 4]: ≤ 20 µM
SMILES: COc1ccc(Nc2nc(Nc3cccc(N4CCN(C(C)=O)CC4)c3)ncc2F)cc1OC [compound 862]

- IC50 [1, 9]: > 20 µM
- IC50 [2, 10]: > 20 µM
SMILES: COC(=O)N1CCN(c2ccc(Nc3ncc(F)c(Nc4cccc(Nc5ncc[nH]5)c4)n3)cc2)CC1 [compound 1057]

The remaining lines, values behind:

SMILES: CN1CCN(c2ccc(Nc3ncc(F)c(NC(C)(C)C)n3)cc2)CC1 [compound 220]
- IC50 [1, 5]: ≤ 20 µM
- IC50 [2, 6]: ≤ 20 µM

SMILES: Cc1cc(C)cc(Nc2ncc(F)c(Nc3ccc4c(c3)NC(=O)C(C)S4(=O)=O)n2)c1 (racemic) [compound 251]
- IC50 [1, 7]: ≤ 20 µM
- IC50 [2, 8]: ≤ 20 µM

SMILES: O=C1COc2ccc(Nc3nc(Nc4cccc(-c5ncco5)c4)ncc3F)cc2N1 [compound 236]
- IC50 [1, 7]: ≤ 20 µM
- IC50 [2, 8]: ≤ 20 µM

SMILES: Cc1cc(C)cc(Nc2ncc(F)c(Nc3ccc4c(c3)NC(=O)C(C)O4)n2)c1 (stereo not shown) [compound 229]
- IC50 [1, 7]: ≤ 20 µM
- IC50 [2, 8]: ≤ 20 µM

SMILES: Fc1cnc(Nc2ccc(N3CCOCC3)cc2)nc1Nc1cc(C2CC2)[nH]n1 [compound 210]
- IC50 [1, 9]: > 20 µM
- IC50 [2, 10]: ≤ 20 µM

SMILES: Cc1cc(Nc2ncc(F)c(NC3CC(C)(C)N(C)C(C)(C)C3)n2)ccc1N1CCN(C)CC1 [compound 181]
- IC50 [1, 5]: ≤ 20 µM
- IC50 [2, 6]: ≤ 20 µM

SMILES: CN1CCN(c2ccc(Nc3ncc(F)c(NC4CC(C)(C)N(C)C(C)(C)C4)n3)cc2)CC1 [compound 178]
- IC50 [1, 5]: ≤ 20 µM
- IC50 [2, 6]: ≤ 20 µM

SMILES: CC1(C)COc2ccc(Nc3nc(Nc4cccc(-c5ncco5)c4)ncc3F)cc2N1 [compound 590]
- IC50 [1, 5]: ≤ 20 µM
- IC50 [2, 6]: ≤ 20 µM

SMILES: CN1CCN(c2ccc(Nc3ncc(F)c(Nc4cc(C5CC5)[nH]n4)n3)cc2Cl)CC1 [compound 212]
- IC50 [1, 9]: ≤ 20 µM
- IC50 [2, 10]: ≤ 20 µM

SMILES: CC(C)Nc1nc(Nc2ccc(N3CCN(C)CC3)c(Cl)c2)ncc1F [compound 216]
- IC50 [1, 5]: ≤ 20 µM
- IC50 [2, 6]: ≤ 20 µM

SMILES: CNC(=O)COc1cccc(Nc2ncc(F)c(NC3CCC3)n2)c1 [compound 109]
- IC50 [1, 5]: ≤ 20 µM
- IC50 [2, 6]: ≤ 20 µM

SMILES: Cc1cc(Nc2ncc(F)c(NC3CCC3)n2)cnc1N1CCN(C)CC1 [compound 171]
- IC50 [1, 5]: ≤ 20 µM
- IC50 [2, 6]: ≤ 20 µM

SMILES: COc1cc(Nc2ncc(F)c(Nc3ccc4c(c3)OC(F)(F)O4)n2)cc(OC)c1 [compound 561]
- IC50 [1, 11]: ≤ 20 µM
- IC50 [2, 12]: ≤ 20 µM

SMILES: Cc1cc(C)cc(Nc2ncc(F)c(Nc3ccc4c(c3)OCO4)n2)c1 [compound 544]
- IC50 [1, 11]: > 20 µM
- IC50 [2, 12]: > 20 µM
